In patent US6046218A, “Pyridine derivative and medicament containing the same as an effective ingredient” (SS Pharmaceutical Co., Ltd., priority 1996, dated 2000) one finds inhibition data, which are given here for 43 compounds.

The experiment has as its system IL-5 production. Kind of experiment: Test 3: inhibition of IL-5 production in human PBMC stimulated with ConA. The experiment is classed as cell-based. To be noted: 10^-6 M, 10 μg/ml ConA, 48 hours, read-out: Inhibition rate of IL-5 production. As to the method: Test 3: Test on the inhibition of IL-5 production
The peripheral blood was collected from a normal volunteer and peripheral blood mononuclear cells (PBMC) of the human peripheral blood were separated therefrom by the specific gravity centrifugation method. They were suspended in an AIM-V medium and their cell count was adjusted. To individual wells of a 96-well incubation plate, 1×10^6 cells/ml of PBMC were poured, followed by the addition of a stimulator (10 μg/ml of ConA) and a medicament. The resulting mixture was incubated in 5% CO2 at 37° C. for 48 hours. After incubation, 50 μl of the supernatant were collected and subjected to measurement by a human IL-5 EIA kit (BIO SOURCE, INC.). The inhibition rate was calculated according to the following formula. [formula]

Structures can show the parent of a compound that is named as a salt.

`COc1ccc(C(=O)/C=C/c2cc(O)c(OC)cn2)c(OC)c1` [Ex. 59, 4-Hydroxy-5-methoxy-2-[3-(2,4-dimethoxyphenyl)-3-oxo-1-propenyl]pyridine]: the inhibition at 1 µM came to 78.9%.

As for `CCCCCC(O)/C=C/c1cc(OC)c(OCCCCC(=O)O)cn1` (stereo not shown) [Ex. 41, 5-[2-(3-Hydroxy-1-octenyl)-4-methoxy-5-pyridyloxy]pentanoic acid hydrochloride], the inhibition at 1 µM was found to be 91%.

On to `COc1cnc(/C=C/C(=O)N2CCCCC2)cc1OC1CCCC1` [Ex. 111, 4-Cyclopentyloxy-5-methoxy-2-(3-oxo-3-piperidino-1-propenyl)pyridine hydrochloride], for which the inhibition at 1 µM is 73.2%.

On to `COc1cc(/C=C/C(O)C2CCCC2)ncc1OCCCC(=O)O` (stereo not shown) [Ex. 37, 4-[2-(3-Cyclopentyl-3-hydroxy-1-propenyl)-4-methoxy-5-pyridyloxy]butanoic acid hydrochloride], for which the inhibition at 1 µM amounted to 72.6%.

Turning to `CCOC(=O)COc1cnc(/C=C/C(=O)c2ccccc2)cc1OC` [Ex. 81, Ethyl [4-methoxy-6-(3-oxo-3-phenyl-1-propenyl)-3-pyridyloxy]acetate], the inhibition at 1 µM is 72.7%.

For `CCCCCC(O)/C=C/c1cc(OCCCC(=O)O)c(OC)cn1` (stereo not shown) [Ex. 40, 4-[2-(3-Hydroxy-1-octenyl)-5-methoxy-4-pyridyloxy]butanoic acid hydrochloride], the inhibition at 1 µM came out at 97.5%.

As to `COC(=O)CCCCCOc1cc(/C=C/C(O)c2ccccc2)ncc1OC` (stereo not shown) [Ex. 26, Methyl 6-[2-(3-hydroxy-3-phenyl-1-propenyl)-5-methoxy-4-pyridyloxy]hexanoate], the inhibition at 1 µM stood at 83.7%.

For `COc1cnc(/C=C/C(=O)c2ccccc2OC)cc1OC` [Ex. 49], the inhibition at 1 µM came to 65%.

With `COC(=O)CCCOc1cnc(/C=C/C(O)c2ccccc2)cc1OC` (stereo not shown) [Ex. 28, Methyl 4-[2-(3-hydroxy-3-phenyl-1-propenyl)-4-methoxy-5-pyridyloxy]butanoate], the inhibition at 1 µM worked out at 72.1%.

For the compound `COc1cnc(/C=C/C(=O)c2ccc(OC)c(OC)c2)cc1O` [Ex. 58, 4-Hydroxy-5-methoxy-2-[3-(3,4-dimethoxyphenyl)-3-oxo-1-propenyl]pyridine hydrochloride], the inhibition at 1 µM is 91.3%.

With `COc1cnc(/C=C/C(=O)c2cccnc2)cc1OC` [Ex. 67, 4,5-Dimethoxy-2-[3-oxo-3-(3-pyridyl)-1-propenyl]pyridine], the inhibition at 1 µM came out at 77.9%.

For the compound `COc1cnc(/C=C/C(=O)c2ccccn2)cc1OC` [Ex. 66, 4,5-dimethoxy-2-[3-oxo-3-(2-pyridyl)-1-propenyl]pyridine], the inhibition at 1 µM stood at 70.1%.

`COc1cnc(/C=C/C(=O)C2CCCCC2)cc1O` [Ex. 75, 2-(3-Cyclohexyl-3-oxo-1-propenyl)-4-hydroxy-5-methoxypyridine hydrochloride]: the inhibition at 1 µM came out at 90.6%.

Consider `CCOC(=O)CCCOc1cnc(/C=C/C(=O)c2ccccc2)cc1OC` [Ex. 82, Ethyl 4-[4-methoxy-6-(3-oxo-3-phenyl-1-propenyl)-3-pyridyloxy]butanoate], for which the inhibition at 1 µM was determined as 69.6%.

For `COC(=O)CCCCCOc1cc(/C=C/C(=O)c2ccccc2)ncc1OC` [Ex. 42, methyl 6-[5-methoxy-2-(3-oxo-3-phenyl-1-propenyl)-4-pyridyloxy]hexanoate], the inhibition at 1 µM was found to be 77.5%.

Take `COc1cnc(/C=C/C(=O)c2cccs2)cc1OC` [Ex. 63, 4,5-Dimethoxy-2-[3-oxo-3-(2-thienyl)-1-propenyl]pyridine]: the inhibition at 1 µM was 81%.

For `COc1cnc(/C=C/C(=O)c2ccsc2)cc1OC` [Ex. 64, 4,5-Dimethoxy-2-[3-oxo-3-(3-thienyl)-1-propenyl]pyridine], the inhibition at 1 µM came to 82.1%.

`COc1cnc(/C=C/C(=O)c2ccsc2)cc1O` [Ex. 65, 4-Hydroxy-5-methoxy-2-[3-oxo-3-(3-thienyl)-1-propenyl]pyridine]: the inhibition at 1 µM is 77.2%.

Consider `COc1cnc(/C=C/C(=O)N2CCCC2)cc1OC` [Ex. 108, 4,5-Dimethoxy-2-(3-oxo-3-pyrrolidino-1-propenyl)pyridine hydrochloride], for which the inhibition at 1 µM is 78.5%.

Regarding `CCOC(=O)CCCCCOc1cc(/C=C/C(=O)c2cc(OC)c(OC)c(OC)c2)ncc1OC` [Ex. 101, Ethyl 6-[5-methoxy-2-(3-oxo-3-(3,4,5-trimethoxyphenyl)-1-propenyl)-4-pyridyloxy]hexanoate hydrochloride], the inhibition at 1 µM stood at 95.6%.

With `COc1cnc(/C=C/C(=O)c2ccccc2OC)cc1O` [Ex. 60, 4-Hydroxy-5-methoxy-2-[3-(2-methoxyphenyl)-3-oxo-1-propenyl]pyridine], the inhibition at 1 µM worked out at 91.4%.

`CCOC(=O)CCCCCOc1cnc(/C=C/C(=O)c2ccccc2)cc1OC` [Ex. 83, Ethyl 6-[4-methoxy-6-(3-oxo-3-phenyl-1-propenyl)-3-pyridyloxy]hexanoate]: the inhibition at 1 µM worked out at 96.2%.

Regarding `COc1cnc(/C=C/C(O)c2ccccc2)cc1OCCCC(=O)O` (stereo not shown) [Ex. 34, 4-[2-(3-Hydroxy-3-phenyl-1-propenyl)-5-methoxy-4-pyridyloxy]butanoic acid], the inhibition at 1 µM is 61%.

Consider `CCCCCC(=O)/C=C/c1cc(OCCCCCC(=O)OCC)c(OCc2ccccc2)cn1` [Ex. 14, Ethyl 6-[5-benzyloxy-2-(3-oxo-1-octenyl)-4-pyridyloxy]hexanoate], for which the inhibition at 1 µM was 90.2%.

Take `COC(=O)CCCOc1cnc(/C=C/C(O)C2CCCC2)cc1OC` (stereo not shown) [Ex. 32, Methyl 4-[2-(3-cyclopentyl-3-hydroxy-1-propenyl)-4-methoxy-5-pyridyloxy]butanoate]: the inhibition at 1 µM was 80.7%.

On to `CCOc1cnc(/C=C/C(=O)c2ccccc2)cc1O` [Ex. 55, 5-Ethoxy-4-hydroxy-2-(^3-oxo-3-phenyl-1-propenyl]pyridine], for which the inhibition at 1 µM is 97.5%.

Turning to `COc1cnc(/C=C/C(=O)N2CCOCC2)cc1OC` [Ex. 110, 4,5-Dimethoxy-2-(3-morpholino-3-oxo-1-propenyl)pyridine hydrochloride], the inhibition at 1 µM is 79.3%.

Regarding `CCOC(=O)CCCOc1cc(/C=C/C(=O)C2CCCC2)ncc1OC` [Ex. 79, Ethyl 4-[2-(3-cyclopentyl-3-oxo-1-propenyl)-5-methoxy-4-pyridyloxy]butanoate hyd rochloride], the inhibition at 1 µM came out at 64.1%.

Regarding `COc1ccc(C(=O)/C=C/c2cc(OC)c(OC)cn2)cc1` [Ex. 50, 4,5-Dimethoxy-2-[3-(4-methoxyphenyl)-3-oxo-1-propenyl]pyridine], the inhibition at 1 µM worked out at 79.4%.

Turning to `COc1cnc(/C=C/C(=O)c2ccco2)cc1OC` [Ex. 62, 4,5-Dimethoxy-2-[3-(2-furyl)-3-oxo-1-propenyl]pyridine], the inhibition at 1 µM is 72.3%.

`COc1cnc(/C=C/C(=O)c2ccncc2)cc1OC` [Ex. 68, 4,5-Dimethoxy-2-[3-oxo-3-(4-pyridyl)-1-propenyl]pyridine]: the inhibition at 1 µM worked out at 95.4%.

Regarding `CCOC(=O)CCCOc1cc(/C=C/C(=O)c2ccccc2OC)ncc1OC` [Ex. 93, Ethyl 4-[5-methoxy-2-(3-(2-methoxyphenyl)-3-oxo-7-propenyl)-4-pyridyloxy]butanoate hydrochloride], the inhibition at 1 µM worked out at 66%.

Turning to `COc1cnc(/C=C/C(=O)N2CCCCCC2)cc1OC` [Ex. 109, 4,5-Dimethoxy-2-[3-(1-azepanyl)-3-oxo-1-propenyl]pyridine hydrochloride], the inhibition at 1 µM is 83.8%.

On to `CCOC(=O)CCCCOc1cc(/C=C/C(=O)c2cc(OC)ccc2OC)ncc1OC` [Ex. 89, Ethyl 5-[5-methoxy-2-(3-(2,5-dimethoxyphenyl)-3-oxo-1-propenyl)-4-pyridyloxy]pentanoate], for which the inhibition at 1 µM was 82.1%.

With `CCCCCC(O)/C=C/c1cc(OCCCC(=O)O)c(O)cn1` (stereo not shown) [Ex. 39, 4-[5-Hydroxy-2-(3-hydroxy-1-octenyl)-4-pyridyloxy]butanoic acid hydrochloride], the inhibition at 1 µM came to 97.6%.

Regarding `CCOC(=O)CCCOc1cc(/C=C/C(=O)c2ccccc2)ncc1OCC` [Ex. 84, Ethyl 4-[5-ethoxy-2-(3-oxo-3-phenyl-1-propenyl)-4-pyridyloxy]butanoate hydrochloride], the inhibition at 1 µM turned out to be 89.4%.

Consider `CCOc1cnc(/C=C/C(=O)c2ccccc2)cc1OCCCC(=O)O` [Ex. 104, 4-[5-Ethoxy-2-(3-oxo-3-phenyl-1-propenyl)-4-pyridyloxy]butanoic acid hydrochloride], for which the inhibition at 1 µM came to 89.3%.

Regarding `CCOC(=O)CCCOc1cc(/C=C/C(=O)C2CCC2)ncc1OC` [Ex. 80, Ethyl 4-[2-(3-cyclobutyl-3-oxo-1-propenyl)-5-methoxy-4-pyridyloxy]butanoatehydrochloride], the inhibition at 1 µM was 69.2%.

In the case of `COc1ccc(OC)c(C(=O)/C=C/c2cc(O)c(OC)cn2)c1` [Ex. 57, 4-Hydroxy-5-methoxy-2-[3-(2,5-dimethoxyphenyl)-3-oxo-1-propenyl]pyridine], the inhibition at 1 µM worked out at 82.5%.

On to `CCOC(=O)CCCCCOc1cc(/C=C/C(O)c2ccccc2)ncc1OC` (stereo not shown) [Ex. 27, Ethyl 6-[2-(3-hydroxy-3-phenyl-1-propenyl)-5-methoxy-4-pyridyloxy]hexanoate], for which the inhibition at 1 µM was determined as 89.6%.

In the case of `COc1cnc(/C=C/C(=O)c2ccccc2)cc1OCCCCCC(=O)O` [Ex. 103, 6-[5-Methoxy-2-(3-oxo-3-phenyl-1-propenyl)-4-pyridyloxy]hexanoic acid], the inhibition at 1 µM stood at 72.4%.

On to `COc1cnc(/C=C/C(=O)c2cc(OC)c(OC)c(OC)c2)cc1O` [Ex. 61, 4-Hydroxy-5-methoxy-2-[3-oxo-3-(3,4,5-trimethoxyphenyl)-1-propenyl]pyridinehydrochloride], for which the inhibition at 1 µM is 79.4%.

As to `COC(=O)CCCOc1cc(/C=C/C(O)c2ccccc2)ncc1OC` (stereo not shown) [Ex. 29, Methyl 4-[2-(3-hydroxy-3-phenyl-1-propenyl)-5-methoxy-4-pyridyloxy]butanoate], the inhibition at 1 µM was 99.8%.

Usually inhibition stands for how much of the control response was suppressed.
